Where two headings read alike, the source gives them in different places.
What was measured:
adrenalectomized rat = assay: Mineralocorticoid antagonism in vivo, adrenalectomized rat assay (urinary Na/K); conditions: for In vivo antagonist activity compared with corresponding 7α-propionylthio derivative (Controls A, B, C, D): same substituents at C-21
Experimental: The bioassay for anti-mineralocorticoid activity was carried out as described for the assay of mineralocorticoid agonist activity by Ulick, Land and Chu, (Endocrinology 99:619, 1976), except that the control group received 1 μg of aldosterone per 100 g body weight and the experimental group received the test substance in addition. All results were expressed as ratio of control urinary Na/K to treatment urinary Na/K. The minimum effective dose of antagonist was defined as that amount of test substance required to block one-half of the effect of 1 μg. aldosterone/100 g body weight as measured by the ratio of control: treatment urinary Na/K.

[1] = system: mineralocorticoid receptor of mammalian kidney; assay: Mineralocorticoid receptor affinity (competition with 3H-aldosterone); type: binding; conditions: for Corticosteroid Receptor Affinity % Mineralocorticoid: amount of aldosterone vs amount of steroid for 50% reduction in binding of 1.3×10^-9 M 3H-aldosterone, kidney cytosol, aldosterone = 100; for Affinity Mineralocorticoid:Androgen Ratio: ratio of mineralocorticoid to androgen receptor affinity (therapeutic index)
Experimental: Each assay tube contained 250 μl cytosol solution and 1,2-^3 H-aldosterone at a final steroid concentration of 1.3×10^-9 M. Standard curves were prepared in the range of 0.1 to 100 ng aldosterone and non-specific binding of 10^-5 M aldosterone was subtracted. The amount of steroid ligand required to effect 50% reduction in the binding of labeled aldosterone compared to the amount of aldosterone to effect the same reduction was expressed as a percentage.

[2] = Rattus norvegicus, sc, subcutaneous, with 1 μg aldosterone per 100 g body weight, dose reducing urinary Na/K effect to one half, inactive = no antagonist activity at 250 μg/100 g, read-out: Mineralocorticoid antagonism Minimum effective dose
[3] = oral route, adrenalectomized rat, read-out: Mineralocorticoid antagonism Minimum effective dose oral
[4] = subcutaneous, with 1 μg aldosterone per 100 g body weight, dose reducing urinary Na/K effect to one half, inactive = no antagonist activity at 250 μg/100 g

| Compound | ED50 (adrenalectomized rat; [2]) [mg/kg] | Corticosteroid Receptor Affinity % Mineralocorticoid [1] [%] | Affinity Mineralocorticoid:Androgen Ratio [1] | further results |
| --- | --- | --- | --- | --- |
| CCC(=O)S[C@@H]1CC2=CC(=O)CC[C@]2(C)[C@H]2CC[C@]3(C)[C@@H](C(=O)COC(C)=O)CC[C@H]3[C@H]12 [Control B, 7α-Propionylthio-21-acetoxy-4-pregnene-3,20-dione, reference compound] | 1 | – | – | – |
| CC(=O)S[C@@H]1CC2=CC(=O)CC[C@]2(C)[C@H]2CC[C@]3(C)[C@@H](C(=O)COC(=O)C(C)(C)C)CC[C@H]3[C@H]12 [Example 8] | 0.75 | 45 | 300 | – |
| CCC(=O)S[C@@H]1CC2=CC(=O)CC[C@]2(C)[C@H]2CC[C@]3(C)[C@@H](C(C)=O)CC[C@H]3[C@H]12 [Control A, 7α-Propionylthio-4-pregnene-3,20-dione, reference compound] | 2 | – | – | – |
| CC(=O)S[C@@H]1CC2=CC(=O)CC[C@]2(C)[C@H]2CC[C@@]3(C)[C@@H](CC[C@@]34CCC(=O)O4)[C@H]12 [Spironolactone, spironolactone, reference compound] | 2.5 | 18 | – | ED50 (adrenalectomized rat; [3]): 10 mg/kg; Mineralocorticoid antagonism Minimum effective dose (adrenalectomized rat; [4]): 250 μg/100 g |
| CC(=O)S[C@@H]1CC2=CC(=O)CC[C@]2(C)[C@H]2CC[C@]3(C)[C@@H](C(=O)CO)CC[C@H]3[C@H]12 [Example 2, 7α-Acetylthio-21-hydroxy-4-pregnene-3,20-dione] | 0.75 | 35 | 175 | – |
| CC(=O)S[C@@H]1CC2=CC(=O)CC[C@]2(C)[C@H]2CC[C@]3(C)[C@@H](C(C)=O)CC[C@H]3[C@H]12 [Example 1, 7α-Acetylthio-4-pregnene-3,20-dione] | 1 | 43 | 172 | In vivo antagonist activity compared with corresponding 7α-propionylthio derivative (Controls A, B, C, D) (adrenalectomized rat): always more active |
| C[C@]12CCC(=O)C=C1CC[C@@H]1[C@@H]2[C@@H](O)C[C@]2(C=O)[C@@H](C(=O)CO)CC[C@@H]12 [Aldosterone, reference compound] | – | 100 | – | – |
| CCC(=O)OCC(=O)[C@H]1CC[C@H]2[C@@H]3[C@H](SC(C)=O)CC4=CC(=O)CC[C@]4(C)[C@H]3CC[C@]12C [Example 4] | 1 | 38 | 190 | – |
| CCCCCCC(=O)OCC(=O)[C@H]1CC[C@H]2[C@@H]3[C@H](SC(=O)CC)CC4=CC(=O)CC[C@]4(C)[C@H]3CC[C@]12C [Control D, 7α-Propionylthio-21-heptanoyloxy-4-pregnene-3,20-dione, reference compound] | – | – | – | Mineralocorticoid antagonism Minimum effective dose (adrenalectomized rat; [4]): inactive |
| CC(=O)OCC(=O)[C@@]1(O)CC[C@H]2[C@H]3[C@H]([C@@H](O)C[C@@]21C)[C@@]1(C)CCC(=O)C=C1C[C@H]3SC(C)=O [Control E, 7α-Acetylthio-21-acetoxy-11β-dihydroxy-4-pregnene-3,20-dione, reference compound] | – | – | – | Mineralocorticoid antagonism Minimum effective dose (adrenalectomized rat; [4]): inactive |
| CC(=O)OCC(=O)[C@H]1CC[C@H]2[C@@H]3[C@H](SC(C)=O)CC4=CC(=O)CC[C@]4(C)[C@H]3CC[C@]12C [Example 3, 7α-Acetylthio-21-acetoxy-4-pregnene-3,20-dione] | 0.25 | 65 | 325 | Affinity ratio index compared with spironolactone ([1]; mineralocorticoid:androgen affinity ratio relative to spironolactone): ~40 times; Dose of spironolactone relative to compound required for equivalent mineralocorticoid antagonist effect, oral (adrenalectomized rat; oral route): four-fold; ED50 (adrenalectomized rat; [3]): 2.5 mg/kg; In vivo antagonist activity compared with corresponding 7α-propionylthio derivative (Controls A, B, C, D) (adrenalectomized rat): always more active; Effectiveness relative to spironolactone, subcutaneous (adrenalectomized rat; subcutaneous route): 10 times; Mineralocorticoid antagonism Minimum effective dose (adrenalectomized rat; [4]): 25 μg/100 g |
| CCCCCCC(=O)OCC(=O)[C@H]1CC[C@H]2[C@@H]3[C@H](SC(C)=O)CC4=CC(=O)CC[C@]4(C)[C@H]3CC[C@]12C [Example 7] | 0.75 | 27 | 180 | In vivo antagonist activity compared with corresponding 7α-propionylthio derivative (Controls A, B, C, D) (adrenalectomized rat): always more active |
| CCCCC(=O)OCC(=O)[C@H]1CC[C@H]2[C@@H]3[C@H](SC(C)=O)CC4=CC(=O)CC[C@]4(C)[C@H]3CC[C@]12C [Example 6] | 1.5 | 68 | 340 | – |
| CCCC(=O)OCC(=O)[C@H]1CC[C@H]2[C@@H]3[C@H](SC(=O)CC)CC4=CC(=O)CC[C@]4(C)[C@H]3CC[C@]12C [Control C, 7α-Propionylthio-21-butyroxy-4-pregnene-3,20-dione, reference compound] | 1.5 | – | – | – |
| CCCC(=O)OCC(=O)[C@H]1CC[C@H]2[C@@H]3[C@H](SC(C)=O)CC4=CC(=O)CC[C@]4(C)[C@H]3CC[C@]12C [Example 5] | 0.5 | 60 | 300 | In vivo antagonist activity compared with corresponding 7α-propionylthio derivative (Controls A, B, C, D) (adrenalectomized rat): always more active |

Reference: patent US4603128A, “Mineralocorticoid hormone antagonists” (priority 1984, dated 1986)
